Source: US5556840A, “2',5'-phosphorothioate oligoadenylates as anitiviral agents” (Temple University - Of The Commonwealth System of Higher …, priority 1994, dated 1996)
Entries after “also recorded” stand apart in the source; their conditions may differ. Like-named read-outs stand apart in the source and are kept apart here.

Columns and labels:
RNase L [1] = test: rRNA cleavage assay using L929 cell extracts (28S and 18S rRNA); type: biochemical, mouse; details: L929 cell extracts; '>' = no activation at that concentration
Description: Activation of RNase L by 2',5'-phosphorothioate adenylate trimer cores and their 5'-monophosphates was also measured in an rRNA cleavage assay using L929 cell extracts.
The corresponding 5'-monophosphates pARp ARp A, pASp ARp A (at 10^-8 M) and pARp ASp A (at 10^-7 M) activated RNase L to cleave 28S and 18S rRNA.

[2] = tested on: HIV reverse transcriptase; test: HIV reverse transcriptase activity; type: biochemical, HIV (HTLV-IIIB); details: 200 uM; for Reverse Transcriptase Activity: control 187×10^3 cpm (reactions 1-4), 273×10^3 cpm (reactions 5-13)
Description: HIV reverse transcriptase (RNA-dependent DNA nucleotidyl-transferase) activity was assayed by a modification of the procedure of Poiesz et al. (Poiesz, B. J., Ruscetti , F. W., Gazdar, A. F., Bunn, P. S., Minna, J. D., and Gallo, R. C., Proc. Natl. Acad. Sci. U.S.A. 77: 7415-7419 (1980)).
Cultured H-9 cells are grown at 10^6 cells/ml in RPMI-1640 medium and 20% heat-inactivated fetal calf serum. Cell suspensions are centrifuged (1000×g, 10 min.) and the supernatant is removed. Virus particles are precipitated from this cell-free supernatant to which 0.3 ml of 4M NaCl and 3.6 ml of 30% (weight/volume) polyethylene glycol are added. The suspension is placed on ice for 2 hr following centrifugation at 15,000×g for 30 min at 0° C. The precipitate is resuspended in 200 microliters of 50% glycerol (vol./vol.)/25 mM Tris-HCl (pH 7.5)/5 mM dithiothreitol/50 mM KCl/0.025% Triton X-100. Virus particles are lysed by the addition of 100 microliters of 0.9% Triton X-100/1.5M KCl. Reverse transcriptase assays are performed at 37° C. for 1 hr with 10 microliters of the lysed virus solution in a final reaction volume of 100 microliters containing: 40 mM Tris-HCl (pH 7.8), 4 mM dithiothreitol, 45 mM KCl and 2.5 micrograms of template primer [poly(A)-dT15, 0.5 micrograms/microliter] (with a signal Mg^++ concentration of 10 mM). At this time, 10 microliters of the 2',5'-phosphorothioate oligoadenylate is added to a final concentration of 200 micromolar. Reaction mixtures also contain 4 micromoles of [^3 H]dTTP. Reactions are stopped by the addition of cold 5% trichloroacetic acid and filtered through nitrocellulose discs. The discs are dried and the radioactivity bound to the discs is determined. Reverse transcriptase activity is expressed as the percent relative to a control.
The compounds were assayed in the above manner in two sets, each set having a separate set of controls. The compounds of reactions 1-4 were assayed against control #1, which was 187×10^3 cpm. The compounds used in reactions 5-13 were assayed against control #2, which was 273×10^3 cpm.

RNase L [3] = test: Core-cellulose assay: activation of partially-purified RNase L to hydrolyze poly(U)-3'-[32P]pCp; type: biochemical, mouse; details: poly(U)-3'-[32P]pCp substrate
Description: FIG. 1B represents the results of a core-cellulose assay indicating the ability of the 2',5'-phosphorothioate adenylate trimer cores and 5'-monophosphates to activate partially-purified RNase L from L929 cell extracts to hydrolyze the substrate polY(U)-3'-[^32 P]pCp. Activation of RNase L was determined by conversion of poly (U )-3'-[^32 P]pCp to acid-soluble fragments. 100% represents 30,000 cpm of labelled poly(U)-3'-[^32 P]pCp bound to glass fiber filters. The curves are labelled in the same manner as FIG. 1A.
The 2',5'-phosphorothioate cores, with one exception, have the correct stereoconfiguration to activate RNase L. The activation of partially-purified RNase L by the 2',5'-phosphorothioates was measured according to the core-cellulose assay of Silverman, Analyt. Biochem. 144:450-460 (1985) which relies on hydrolysis of the substrate poly(U)-3-[^32 P]pCp. […] (FIG. 1B) The order of activation of the trimer cores and the corresponding 5'-monophosphates is: RpRp>SpRp>RpSp (FIG. 1B).

[4] = tested on: tobacco mosaic virus (TMV); test: TMV replication in intact Nicotiana glutinosa plants (local lesions); type: in vivo; details: 2 × 10^-5 M in infecting solution; 48 hr after infection; half-leaves of N. glutinosa
Description: Carborundum (400 mesh) was sprinkled lightly onto leaves. Solutions containing 0.2 micrograms per ml of TMV and 2×10^-5 M 2',5'-phosphorothioate oligoadenylate in phosphate buffer were applied onto half-leaves of N. glutinosa with either a gloved finger or with a pipettor. The remaining half-leaves were controls (inoculated with the buffer solution containing TMV, but no active compound). The infection was allowed to proceed 48 h under continuous illumination of about 1500 Lx at which time local virus lesions appeared. Inhibition of TMV replication was calculated as the percent of local lesions produced in 2',5'-phosphorothioate oligoadenylate-treated half-leaves compared to control half-leaves.
^4 Inhibition of TMV replication was detected 48 hr after infection
and was calculated as the percent of local lesions produced in treated
halfleaves of N. glutinosa compared to control halfleaves.

phosphodiesterases = test: Metabolic stability, general statements; type: in vitro ADME
[5] = tested on: 2'-phosphodiesterase (2'-PDE), L cell extract; test: Hydrolysis by 2'-phosphodiesterase in L cell extract; type: in vitro ADME
Description: The four 2,5-phosphorothioate adenylate trimer cores were further characterized by hydrolysis with the enzyme 2'-phosphodiesterase ("2'-PDE"), an exoribonuclease found in L cell extract The enzyme cleaves from the 2'/3'-terminus.
(§1) The metabolic stability of the 2,5'-phosphorothioate dimer and trimer cores is markedly greater than authentic 2-5A. The rate of hydrolysis of the trimer cores by the 3'-exonuclease SVPD is, in order of decreasing stability: ASp ARp A>ARp ARp A>>>A3. […] The 3'->'5'direction of stepwise cleavage by SVPD is blocked by an Sp configuration, preventing cleavage of the upstream adjacent phosphorothioate linkage. […] With both SVPD and 2'-PDE, the dimer cores (either ARp A or ASp A) accumulate following hydrolysis of the ARp ARp A, ASp ARp A and ARp ASp A trimer cores. Hydrolysis of the 2-5A molecule by SVPD and 2'-PDE proceeds from the 2'/3'-terminus. Therefore, introduction of the phosphorothioate group into the trimer core results in the accumulation of the ARp A or ASp A dimer cores from the 5'-terminus and the accumulation of AMPS from the 2'/3'-terminus (Table 3). With authentic A3, there is no detectable accumulation of A2 following hydrolysis by SVPD or 2'-PDE.

serum phosphodiesterases = test: Hydrolysis by serum phosphodiesterases
SVPD = test: Hydrolysis by SVPD (snake venom phosphodiesterase); type: in vitro ADME
Description: It is known that the enzyme SVPD preferentially cleaves Rp-3',5'- or 2',5'-phosphorothioate linkages from the 2'/3'-terminus. Nelson et al, J. Org. Chem. 49:2314-2317 (1984); Eppstein et al, J. Biol. Chem. 261:5999-6003 (1986); Lee et al, Biochemistry 24:551-555 (1985). SVPD hydrolysis of the chemically synthesized dimer core ARp A yielded adenosine and AMPS in a molar ratio of 1:1, respectively; the half-life was 3 hours (Table 3).
as §1

RNase L [6] = test: Activation or inhibition of RNase L, general statements without assay named; type: biochemical

Row | Substance | concentration at which RNase L was activated to cleave 28S and 18S rRNA (RNase L [1]) | Percent Inhibition of HIV reverse transcriptase [2] [%] | Reverse Transcriptase Activity [2] | activation of RNase L, core-cellulose assay (result in words) (RNase L [3]) | Percent TMV Inhibition [4] [%] | metabolic stability (result in words) (phosphodiesterases) | half life, hydrolysis by L cell extract [5] [days] | hydrolysis by serum phosphodiesterases (result in words) (serum phosphodiesterases) | hydrolysis by SVPD (result in words) (SVPD) | hydrolysis by SVPD (result in words) (SVPD; listed as ARp ASp A) | effect on RNase L activation (result in words) (RNase L [6])
1 | 5'-O-Phosphoryl-(Rp)-thioadenylyl-(2'-5')-(Rp)-thioadenylyl-(2'-5')-adenosine [pARp ARp A] | 10^-8 M | 25 | 144 10^3 cpm | most efficient activator of RNase L | 75 | metabolically unstable and is readily attacked by phosphodiesterases |  |  |  |  | 
2 | (Rp)-P-Thioadenylyl-(2'-5')-(Sp)-P-thiodenylyl-(2'-5')-adenosine [Compound 10A] | > 10^-4 M | 10 | 247 10^3 cpm |  | 70 | metabolicly stable | 20 | not cleaved | not substrates for SVPD; also recorded: not cleaved | not substrates of SVPD | activates RNase L
